{"source": "paper PMC7708446", "about": "“^18F-meta-fluorobenzylguanidine (^18F-mFBG) to monitor changes in norepinephrine transporter expression in response to therapeutic intervention in neuroblastoma models” (Scientific Reports, 2020)", "key": {"[1]": {"system": "NET-1", "test": "Radiotracer cell uptake after AZD2014 pre-treatment, Kelly cells", "format": "cell-based, human", "conditions": "for increase of ^18F-mFBG uptake: vs untreated control", "procedure": "(§1) To investigate potential changes in NET-1 function following an AZD2014-induced increase in protein expression, ^18F-mFBG and ^123I-mIBG cell uptake assays were performed in Kelly and SK-N-BE(2)C cells incubated with the drug (0–500 nM) for 24 and 72 h. […] Perhaps due to the already high expression of NET-1, increase in radiotracer uptake was less evident in SK-N-BE(2)C cells (39 ± 9% and 62 ± 5%, respectively). […].\n(§2) To test the response of cell uptake using the mTOR1/2 inhibitor AZD2014 (0–500 nM) (vistusertib, Stratech Scientific, Ely, UK), a stock solution of the drug (10 mM) in dimethyl sulfoxide (DMSO, Sigma Aldrich, Gillingham, UK) was initially prepared and then diluted in culture medium to a final DMSO concentration of < 0.1%. Radiotracer uptake was assessed in cells 24 and 72 h after incubation with AZD2014. The uptake was normalised to cell viability as performed using the CellTiter-Glo assay (Promega, Southampton, UK). The data are expressed as the average of n = 3 independent experiments (performed in triplicate) ± SEM."}, "[2]": {"system": "NET-1", "test": "Ex vivo Western blot of NET-1 in tumour lysates of treated animals", "set-up": "species or system mice", "procedure": "(§3) Western blotting (WB) was performed as previously described. Antibodies were obtained from Cell Signalling Technologies (London, UK) unless stated otherwise: GAPDH, beta-actin, p-Akt^S473, Akt, p-4EBP1^T37/46, p-S6^S240/244, S6, N-MYC (Merck Millipore, Watford, UK), NET-1 (mAbTechnologies, Stone Mountain, Georgia), anti-rabbit HRP, anti-mouse HRP. Blots were visualised with SuperSignal West Pico and Femto Chemiluminescent Substrate (Thermo Fisher Scientific, Loughborough, UK) and ChemiDoc XRS + System (BioRad, Watford, UK). Data were processed and band density analysed with ImageJ and Image Lab 6.0 (BioRad, Watford, UK)."}, "[3]": {"system": "Kelly xenografts", "test": "AZD2014 treatment of Kelly xenograft mice (body weight, tumour growth)", "format": "in vivo", "conditions": "25 mg/kg/day", "procedure": "All studies were conducted in compliance with licenses issued under the UK Animals (Scientific Procedures) Act 1986 and approved by the Institute of Cancer Research Animal Welfare and Ethical Review Body (AWERB) according to the United Kingdom National Cancer Research Institute Guidelines for Animal Welfare in Cancer Research (project license PCC916B22, Animals in Science Regulation Unit, Home Office Science, London, UK)[65]. […]; 20–22 g) obtained from an in-house breeding colony were used in the studies. Animals were housed in a temperature-controlled facility with 12 h on–12 h off light cycle and provided water and laboratory rodent food ad libitum. Subcutaneous xenografts were generated by injection of either Kelly (5 × 10^6/0.1 mL PBS/Matrigel 30% v/v; BD Matrigel Matrix, BD Bioscience, San Jose, California, US) or SK-N-BE(2)C (1 × 10^6/0.1 mL PBS/Matrigel) into the lower flank. For the treatment studies, AZD2014 stock solution in DMSO was diluted in PEG400 to a final concentration of 2 mg/mL (10% DMSO maximum). When tumours reached ~ 100 mm^3 (calliper measurements using formula: Volume = (Width(2) × Length)/2), mice were treated daily, for a total of either 1, 3 or 7 days, by oral gavage with AZD2014 (20 or 25 mg/kg/day) or vehicle control. Mice were monitored daily for body weight or other adverse effects."}, "[4]": {"system": "mTORC1/2", "test": "Ex vivo IHC/Western blot of mTOR signalling in treated tumours", "set-up": "species or system mice", "conditions": "Kelly xenografts 25 mg/kg/day, 3 days", "procedure": "as §3\nFormalin-fixed (10% v/v) paraffin-embedded tumours were sectioned to a thickness of 5 µm. Tumour sections underwent heat-induced epitope retrieval with a citric acid based antigen unmasking solution (H3300, Vector Laboratories, Peterborough, UK). The primary NET-1 antibody (AMT-002, Alomone Labs, Jerusalem, Israel), p-S6^S240/244 and p-4EBP1^T37/46 were added and incubated overnight at 4 °C. Endogenous peroxidases were blocked (2% H2O2 in methanol, 10 min, RT) before incubation with a secondary HRP-conjugated antibody. For chromogen development, slides were processed using a diaminobenzidine (DAB)-peroxidase substrate kit (4 min, Immpact DAB, SK-4105, Vector Laboratories, Peterborough, UK). […]"}, "[5]": {"system": "NET-1", "test": "Western blot of total NET-1 protein in SK-N-BE(2)C cells after AZD2014", "format": "cell-based, human", "conditions": "seen at 24 h, maintained at 72 h", "procedure": "Given the potential role of Akt in NET-1 protein synthesis and surface expression, we further looked at NET-1 protein levels following AZD2014 treatment. […] In Kelly cells, the WB analysis was not sensitive enough to detect and accurately quantify the inherently low expression of the target protein.\nas §3"}, "[6]": {"system": "mTORC1/2", "test": "Western blot of mTORC1/2 substrates in Kelly and SK-N-BE(2)C cells", "format": "cell-based, human", "procedure": "as §3"}, "[7]": {"system": "SK-N-BE(2)C cells", "test": "Cell viability (CellTiter-Glo) after 72 h AZD2014, SK-N-BE(2)C", "format": "cell-based", "conditions": "Homo sapiens, read-out: GI50 (concentration that reduced cell viability by 50%)", "procedure": "(§4) To assess the cellular response to mTORC1/2 inhibition, Kelly and SK-N-BE(2)C cell lines, both of which over-express MYCN protein (Fig. 1b), were incubated with AZD2014 (0 to 1 µM) for 72 h. […] Key substrates of AZD2014- induced mTORC1/2 inhibition were assessed by WB.\n(§5) Supplementary Figure 5: NB cell viability after 72 h treatment with AZD2014 (0–1 µM) analysed by Celltiter Glo assay. Data presented as mean ± SEM, n ≥ 3 per group, performed in triplicate. Graph is generated using GraphPad Prism (v 8.4.1), https://www.graphpad.com."}, "[8]": {"system": "Kelly cells", "test": "Cell viability (CellTiter-Glo) after 72 h AZD2014, Kelly", "format": "cell-based", "conditions": "Homo sapiens, read-out: GI50 (concentration that reduced cell viability by 50%)", "procedure": "as §4, §5"}, "[9]": {"biological_target": "T1, NET-1 (Homo sapiens, UniProt P23975)", "T1 construct": "SK-N-SH, SK-N-BE(2)C, Kelly, NBLS human NB cell lines; endogenous in cells; host or cells: SK-N-SH, SK-N-BE(2)C, Kelly, NBLS human neuroblastoma cell lines", "T1 sequence (P23975 whole entry)": "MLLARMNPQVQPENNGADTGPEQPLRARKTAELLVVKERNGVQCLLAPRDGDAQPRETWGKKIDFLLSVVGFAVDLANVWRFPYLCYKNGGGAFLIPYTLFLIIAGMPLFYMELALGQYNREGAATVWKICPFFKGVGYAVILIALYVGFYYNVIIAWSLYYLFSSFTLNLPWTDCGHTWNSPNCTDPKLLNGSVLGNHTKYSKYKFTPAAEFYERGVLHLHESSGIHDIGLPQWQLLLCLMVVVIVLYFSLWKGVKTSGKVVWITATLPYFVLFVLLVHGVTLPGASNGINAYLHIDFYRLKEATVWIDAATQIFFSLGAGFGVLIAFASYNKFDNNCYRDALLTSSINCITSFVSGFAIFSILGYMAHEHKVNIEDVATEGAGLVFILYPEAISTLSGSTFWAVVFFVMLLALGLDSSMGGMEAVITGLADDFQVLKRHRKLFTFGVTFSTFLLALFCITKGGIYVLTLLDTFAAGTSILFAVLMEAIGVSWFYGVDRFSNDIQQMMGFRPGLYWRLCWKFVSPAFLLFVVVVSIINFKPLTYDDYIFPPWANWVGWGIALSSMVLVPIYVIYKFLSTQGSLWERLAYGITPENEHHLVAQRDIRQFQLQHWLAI", "test": "Radiotracer cell uptake after AZD2014 pre-treatment, SK-N-BE(2)C cells", "format": "cell-based", "conditions": "for increase of ^18F-mFBG uptake: vs untreated control", "procedure": "as §1, §2"}, "[10]": {"test": "Biodistribution and PET statements pooled over Kelly and SK-N-BE(2)C xenograft-bearing mice", "format": "in vivo", "conditions": "^123I-mIBG 24 h p.i.", "procedure": "When the tumours reached approximately 100–200 mm^3, mice were anaesthetised with an isoflurane/O2 mixture (1.5–2.0% v/v) and intravenously injected with either ^18F-mFBG (~ 7.5 MBq) or ^123I-mIBG (~ 20 MBq). Mice were then imaged using an Albira PET/SPECT/CT scanner (Bruker, Coventry, UK). […] Acquisition, reconstruction and image analysis were performed as described previously. Following the final scan, the mice were sacrificed and the major organs were excised, weighed and their associated radioactivity was measured using a γ-counter. Biodistribution and image quantification were expressed as a percentage of injected dose per gram of tissue (%ID/g), whereby 1 cm^3 on PET acquisitions were assumed to equal 1 g (n ≥ 3 mice ± SD)."}, "[11]": {"biological_target": "T1, NET-1", "test": "^18F-mFBG / ^123I-mIBG uptake in NB cell lines with and without desipramine", "format": "cell-based", "conditions": "1 h at 37 °C, rank among Kelly, SK-N-SH, NBLS", "source_text": "Figure 1 (a) Simplified radiosynthesis scheme of ^18F-mFBG by copper-mediated deborylation. (b) Total NET-1 protein expression in selected NB cell lines determined by Western blot. Full length blots are presented in Supplementary Figure WB1. […] Data are presented as mean ± SEM, n ≥ 2 per group, performed in triplicate. Graphs are generated using GraphPad Prism (v 8.4.1), https://www.graphpad.com.\nFor each cell line the cell-associated radioactivity was normalised to the number of cells and then each group was presented as a percentage of the signal acquired for SK-N-BE(2)C cells (mean of n = 3 independent experiments performed in triplicate ± SEM)."}, "[12]": {"system": "NB tumours", "set-up": "method as in PMID 15490487, PMID 3181182, PMID 22700000", "conditions": "NB patients; cited from earlier work"}, "[13]": {"conditions": "Kelly and SK-N-BE(2)C, Western blot"}}}
{"smiles": "CNC(=O)c1cccc(-c2ccc3c(N4CCOC[C@@H]4C)nc(N4CCOC[C@@H]4C)nc3n2)c1", "note": "[AZD2014]", "values": [{"measurement": "increase of ^18F-mFBG uptake", "setting": "[1]; 200 nM AZD2014, 72 h", "result": "128 ± 23", "unit": "%"}, {"measurement": "increase of ^18F-mFBG uptake", "setting": "[1]; 500 nM AZD2014, 72 h", "result": "292 ± 27", "unit": "%"}, {"measurement": "^123I-mIBG and ^18F-mFBG uptake", "setting": "[1]; AZD2014 0–500 nM, 24 h", "result": "concentration-dependent increase"}, {"measurement": "NET-1 expression in tumour lysates, control vs treated", "setting": "[2]; Kelly, 25 mg/kg/day 3 days, p = 0.84, n = 2", "result": "no difference"}, {"measurement": "NET-1 expression in tumour lysates", "setting": "[2]; SK-N-BE(2)C, 20 mg/kg/day 3 days, not significant (p = 0.07, n = 4)", "result": "increase"}, {"measurement": "body weight lost compared to the vehicle control", "setting": "[3]; oral gavage, 3 days post-treatment initiation", "result": "~ 10%"}, {"measurement": "tumour growth", "setting": "[3]; Kelly xenografts, n = 3, p < 0.0001", "result": "impeded"}, {"measurement": "mTORC1/2 inhibition in vivo (p-S6^S240/244, p-4EBP1^T37/46 IHC)", "setting": "[4]", "result": "failed to inhibit"}, {"measurement": "total NET-1 protein expression", "setting": "[5]", "result": "prominent and persistent increase"}, {"measurement": "MYCN protein expression", "setting": "[6]; [13]", "result": "not robustly reduced"}, {"measurement": "phosphorylation of S6 and 4EBP1", "setting": "[6]; [13]", "result": "concentration dependent decrease"}, {"measurement": "p-Akt^S473 inhibition", "setting": "[6]; both cell lines, after 72 h incubation", "result": "not sustained"}, {"measurement": "p-Akt^S473", "setting": "[6]; both cell lines, early time points (3–12 h)", "result": "concentration-dependent downregulation"}, {"measurement": "GI50", "setting": "[7]", "result": 307, "unit": "nM"}, {"measurement": "GI50", "setting": "[8]", "result": 476, "unit": "nM"}, {"measurement": "increase of ^18F-mFBG uptake", "setting": "[9]; 200 nM AZD2014, 72 h", "result": "39 ± 9", "unit": "%"}, {"measurement": "increase of ^18F-mFBG uptake", "setting": "[9]; 500 nM AZD2014, 72 h", "result": "62 ± 5", "unit": "%"}, {"measurement": "^123I-mIBG and ^18F-mFBG uptake", "setting": "[9]; AZD2014 0–500 nM, 24 h", "result": "concentration-dependent increase"}]}
{"smiles": "NC(N)=NCc1cccc(I)c1", "note": "[^123I-mIBG, meta-iodobenzylguanidine, reference compound]", "values": [{"measurement": "Tumour-to-background ratios compared with ^18F-mFBG", "setting": "[10]", "result": "greater"}, {"measurement": "cell-associated radioactivity, SK-N-BE(2)C", "setting": "[11]", "result": "greatest uptake"}, {"measurement": "cell-associated radioactivity, Kelly", "setting": "[11]; SK-N-BE(2)C", "result": "least uptake"}]}
{"smiles": "N=C(N)NCc1cccc([131I])c1", "note": "[^131I-mIBG, meta-iodobenzylguanidine]", "values": [{"measurement": "clinical response", "setting": "[12]", "result": "0 to 57", "unit": "%"}]}
